# Results reported in US7018614B2, “Stabilization of radiopharmaceuticals labeled with 18-F” (Eastern Isotopes, Inc., priority 2002, dated 2006).
# Experiment: Stability of FDG solution against radiolysis: Radio Chemical Purity (RCP) by TLC after storage
# Assay type: physicochemical
# Protocol: In all experiments, the RCP was determined using a standard Thin Layer Chromatography (TLC) method using 10 cm silica-coated glass plates supplied by Alltech (Deerfield, Ill.). A 95:5 mixture of acetonitrile and water was used as a mobile phase and a TLC plate scanner supplied by Bioscan (Washington, D.C.) was used to measure the radioactivity distribution on the plate. In most cases, the sample size was less than 1 μl.
# […] It should be noted, however, that most of the radiolysis takes place in the first 3–6 hours due to the fact that the radioactivity concentration decreases exponentially over time with a half-life of 1.82 hours. After 6 hours, only about 10% of the radioactivity remains and is probably not sufficient to cause any significant decomposition of the product.
# In this experiment, the final product was prepared with an initial activity concentration of 10.8 GBq/ml (292 mCi/ml). […] Samples were kept in tightly sealed vials identical to those used for storage and delivery of FDG to customers. […]
# It was added in an amount calculated to result, after dilution with water, in about a 0.05% concentration in the final product.
# Samples 1, 2, and 3, each of 2 ml, were taken from the final product. To see if storage conditions affected the results, samples 1 and 2 were stored in vials while sample 3 was stored in a syringe identical to those that are used to deliver FDG to users. […]
substance,measurement,setting,value
[^18F] 2-Fluoro-2-Deoxy-D-glucose [FDG],RCP after decline as a result of radiolysis,"over a period of less than 12 hours, high activity concentration",less than 90%
same,RCP at the end of production,"typical value, end of production",98–100%
